Source: PubChem BioAssay (NCI)
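A five-concentration, 48-hour dose response in 96-well plates underlies each endpoint, interpolated linearly between surrounding concentrations. At the TGI there is no net growth.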

Experiments:
Assay in all cases: NCI tumour cell line growth inhibition, 48 h
[1] = system: SW-620 colon
[2] = system: RXF 393 renal
[3] = system: SF-268 CNS
[4] = system: MDA-MB-231 breast
[5] = system: HOP-62 NSCLC
[6] = system: A498 renal
[7] = system: MOLT-4 leukemia
[8] = system: LOX IMVI melanoma
[9] = system: PC-3 prostate
[10] = system: NCI-H23 lung
[11] = system: 786-0 renal
[12] = system: UACC-257 melanoma
[13] = system: SNB-19 CNS
[14] = system: ACHN renal
[15] = system: CAKI-1 renal
[16] = system: NCI/ADR-RES ovarian
[17] = system: UO-31 renal
[18] = system: HCT-116 colon
[19] = system: HS 578T breast
[20] = system: OVCAR-5 ovarian
[21] = system: IGROV1 ovarian
[22] = system: TK-10 renal
[23] = system: HOP-92 NSCLC
[24] = system: NCI-H226 lung
[25] = system: SK-MEL-5 melanoma
[26] = system: CCRF-CEM leukemia
[27] = system: OVCAR-8 ovarian
[28] = system: OVCAR-3 ovarian
[29] = system: MDA-N
[30] = system: U251 CNS
[31] = system: EKVX NSCLC
[32] = system: HCC-2998 colon
[33] = system: SN12C renal
[34] = system: NCI-H460 lung
[35] = system: SK-MEL-28 melanoma
[36] = system: BT-549 breast
[37] = system: HT29 colon
[38] = system: SNB-75 CNS
[39] = system: A549 NSCLC
[40] = system: SK-OV-3 ovarian
[41] = system: OVCAR-4 ovarian
[42] = system: UACC-62 melanoma
[43] = system: DU-145 prostate
[44] = system: SF-539 CNS
[45] = system: HL-60(TB) leukemia
[46] = system: M14 melanoma
[47] = system: HCT-15 colon
[48] = system: SR leukemia
[49] = system: T-47D breast
[50] = system: K-562 leukemia
[51] = system: MALME-3M melanoma
[52] = system: MDA-MB-435
[53] = system: SF-295 CNS
[54] = system: RPMI-8226 leukemia
[55] = system: COLO 205 colon
[56] = system: NCI-H522 lung
[57] = system: KM12 colon
[58] = system: SK-MEL-2 melanoma

COc1ccc2c(c1)C(=O)C1(C2)[C@H](c2ccccc2)C2C(=O)c3cc(OC)ccc3C2[C@H]1c1ccccc1 (some centres undefined) gave a TGI [1] of over 100 µM, a TGI [2] of over 100 µM and a TGI [3] of over 100 µM. The TGI [4] was over 100 µM, the TGI [5] was over 100 µM and the TGI [6] was over 100 µM. For the same molecule, the TGI [7] was over 100 µM, the TGI [8] was over 100 µM and the TGI [9] was over 100 µM. For the same molecule, the TGI [10] was over 100 µM, the TGI [11] was over 100 µM and the TGI [12] was over 100 µM. It also gave a TGI [13] of over 100 µM, a TGI [14] of over 100 µM and a TGI [15] of 5.63 µM. For the same molecule, the TGI [16] was over 100 µM, the TGI [17] was over 100 µM and the TGI [18] was over 100 µM. It also gave a TGI [19] of over 100 µM, a TGI [20] of over 100 µM and a TGI [21] of over 100 µM. It also gave a TGI [22] of over 100 µM, a TGI [23] of over 100 µM and a TGI [24] of over 100 µM. It also gave a TGI [25] of over 100 µM, a TGI [26] of over 100 µM and a TGI [27] of over 100 µM. The TGI [28] was over 100 µM, the TGI [29] was over 100 µM and the TGI [30] was over 100 µM. The TGI [31] was over 100 µM, the TGI [32] was over 100 µM and the TGI [33] was over 100 µM. For the same molecule, the TGI [34] was over 100 µM, the TGI [35] was over 100 µM and the TGI [36] was over 100 µM. For the same molecule, the TGI [37] was over 100 µM, the TGI [38] was over 100 µM and the TGI [39] was over 100 µM. The TGI [40] was over 100 µM, the TGI [41] was over 100 µM and the TGI [42] was over 100 µM. For the same molecule, the TGI [43] was over 100 µM, the TGI [44] was over 100 µM and the TGI [45] was over 100 µM. For the same molecule, the TGI [46] was over 100 µM, the TGI [47] was over 100 µM and the TGI [48] was over 100 µM. The TGI [49] was over 100 µM, the TGI [50] was over 100 µM and the TGI [51] was over 100 µM. For the same molecule, the TGI [52] was over 100 µM, the TGI [53] was over 100 µM and the TGI [54] was over 100 µM. It also gave a TGI [55] of over 100 µM, a TGI [56] of over 100 µM and a TGI [57] of over 100 µM.
CS(=O)(=O)Nc1ccc2c(c1)N(S(C)(=O)=O)CC2COS(C)(=O)=O (centres undefined) gave a TGI [1] of over 100 µM, a TGI [2] of 41.5 µM and a TGI [4] of over 100 µM. It also gave a TGI [5] of 70.9 µM, a TGI [6] of over 100 µM and a TGI [7] of over 100 µM. It also gave a TGI [8] of over 100 µM, a TGI [9] of over 100 µM and a TGI [10] of over 100 µM. For the same molecule, the TGI [11] was over 100 µM, the TGI [12] was over 100 µM and the TGI [14] was over 100 µM. It also gave a TGI [15] of over 100 µM, a TGI [16] of over 100 µM and a TGI [17] of over 100 µM. For the same molecule, the TGI [18] was over 100 µM, the TGI [19] was over 100 µM and the TGI [20] was over 100 µM. The TGI [21] was over 100 µM, the TGI [22] was over 100 µM and the TGI [58] was 71.7 µM. For the same molecule, the TGI [23] was over 100 µM, the TGI [24] was over 100 µM and the TGI [25] was 40.7 µM. For the same molecule, the TGI [26] was over 100 µM, the TGI [27] was over 100 µM and the TGI [28] was over 100 µM. It also gave a TGI [29] of over 100 µM, a TGI [30] of 59.2 µM and a TGI [31] of over 100 µM. It also gave a TGI [32] of over 100 µM, a TGI [33] of over 100 µM and a TGI [34] of over 100 µM. It also gave a TGI [35] of over 100 µM, a TGI [36] of over 100 µM and a TGI [37] of over 100 µM. It also gave a TGI [38] of over 100 µM, a TGI [39] of over 100 µM and a TGI [41] of over 100 µM. It also gave a TGI [42] of over 100 µM, a TGI [43] of over 100 µM and a TGI [44] of over 100 µM. The TGI [45] was 88.3 µM, the TGI [47] was over 100 µM and the TGI [48] was 93.2 µM. For the same molecule, the TGI [49] was over 100 µM, the TGI [50] was over 100 µM and the TGI [51] was over 100 µM. The TGI [52] was over 100 µM, the TGI [53] was over 100 µM and the TGI [54] was 81.4 µM. For the same molecule, the TGI [55] was over 100 µM, the TGI [56] was 43.1 µM and the TGI [57] was over 100 µM.
O=S(=O)(Nc1nc2ccccc2n1S(=O)(=O)c1ccccc1)c1ccccc1 gave a TGI [1] of over 100 µM, a TGI [2] of over 100 µM and a TGI [3] of over 100 µM. It also gave a TGI [4] of over 100 µM, a TGI [5] of over 100 µM and a TGI [6] of over 100 µM. The TGI [7] was over 100 µM, the TGI [8] was over 100 µM and the TGI [9] was over 100 µM. The TGI [10] was over 100 µM, the TGI [11] was over 100 µM and the TGI [12] was over 100 µM. It also gave a TGI [13] of over 100 µM, a TGI [14] of 61.9 µM and a TGI [15] of over 100 µM. It also gave a TGI [16] of over 100 µM, a TGI [17] of over 100 µM and a TGI [18] of over 100 µM. It also gave a TGI [19] of over 100 µM, a TGI [20] of over 100 µM and a TGI [21] of over 100 µM. For the same molecule, the TGI [22] was over 100 µM, the TGI [58] was over 100 µM and the TGI [23] was over 100 µM. The TGI [24] was over 100 µM, the TGI [25] was over 100 µM and the TGI [26] was 73.8 µM. For the same molecule, the TGI [27] was over 100 µM, the TGI [28] was over 100 µM and the TGI [29] was over 100 µM. The TGI [30] was over 100 µM, the TGI [31] was over 100 µM and the TGI [33] was over 100 µM. For the same molecule, the TGI [35] was over 100 µM, the TGI [36] was over 100 µM and the TGI [37] was over 100 µM. For the same molecule, the TGI [38] was over 100 µM, the TGI [39] was over 100 µM and the TGI [40] was over 100 µM. For the same molecule, the TGI [41] was over 100 µM, the TGI [42] was over 100 µM and the TGI [43] was over 100 µM. For the same molecule, the TGI [46] was over 100 µM, the TGI [47] was over 100 µM and the TGI [49] was over 100 µM. It also gave a TGI [50] of over 100 µM, a TGI [51] of over 100 µM and a TGI [52] of over 100 µM. The TGI [53] was over 100 µM, the TGI [54] was over 100 µM and the TGI [55] was over 100 µM. The TGI [56] was over 100 µM and the TGI [57] was over 100 µM.
